{
  "source": "patent US20110262407A1",
  "about": "“TREATMENT WITH ALPHA7 SELECTIVE LIGANDS” (Targacept, Inc., priority 2008, published 2011)",
  "key": {"alpha4beta2": {"target": "alpha4beta2 (Homo sapiens, UniProt P17787+P43681)", "sequence (P43681 29-627 limits assumed)": "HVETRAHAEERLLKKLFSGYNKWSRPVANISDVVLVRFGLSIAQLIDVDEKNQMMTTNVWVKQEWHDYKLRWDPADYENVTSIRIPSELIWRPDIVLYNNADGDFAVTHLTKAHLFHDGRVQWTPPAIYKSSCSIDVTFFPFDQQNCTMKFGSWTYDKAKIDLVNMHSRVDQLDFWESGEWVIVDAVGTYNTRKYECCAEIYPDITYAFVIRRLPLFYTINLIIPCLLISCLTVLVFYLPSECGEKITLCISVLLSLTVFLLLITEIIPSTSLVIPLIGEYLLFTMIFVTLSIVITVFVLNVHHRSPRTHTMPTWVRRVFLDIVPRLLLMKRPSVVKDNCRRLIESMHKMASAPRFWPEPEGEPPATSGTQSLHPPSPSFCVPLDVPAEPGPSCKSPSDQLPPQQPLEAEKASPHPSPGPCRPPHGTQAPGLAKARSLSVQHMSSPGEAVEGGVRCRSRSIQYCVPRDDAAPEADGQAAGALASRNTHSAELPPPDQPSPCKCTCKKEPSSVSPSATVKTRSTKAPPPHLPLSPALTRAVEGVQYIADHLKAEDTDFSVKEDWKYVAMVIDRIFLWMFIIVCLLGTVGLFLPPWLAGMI", "sequence (P17787 26-502)": "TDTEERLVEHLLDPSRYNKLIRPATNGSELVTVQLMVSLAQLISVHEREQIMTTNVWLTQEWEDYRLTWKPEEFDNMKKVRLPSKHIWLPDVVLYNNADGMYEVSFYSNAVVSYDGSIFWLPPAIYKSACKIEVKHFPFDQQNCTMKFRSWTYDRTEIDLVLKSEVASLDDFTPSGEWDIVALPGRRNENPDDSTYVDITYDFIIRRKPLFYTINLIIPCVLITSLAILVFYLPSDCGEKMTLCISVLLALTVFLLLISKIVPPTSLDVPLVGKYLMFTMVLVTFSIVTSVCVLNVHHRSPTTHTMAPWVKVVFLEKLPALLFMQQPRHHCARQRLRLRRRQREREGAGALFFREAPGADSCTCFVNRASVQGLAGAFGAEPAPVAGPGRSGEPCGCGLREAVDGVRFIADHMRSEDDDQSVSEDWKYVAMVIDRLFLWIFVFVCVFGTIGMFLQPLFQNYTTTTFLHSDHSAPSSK", "experiment": "functional agonism at alpha4beta2", "text": "[…]. […] […]"}, "[1]": {"target": "T1, human alpha7 nicotinic receptors (Homo sapiens, UniProt P36544)", "T1 construct": "expressed in transfected cells; host or cells: Xenopus laevis oocytes (transient expression)", "T1 sequence (P36544 23-502)": "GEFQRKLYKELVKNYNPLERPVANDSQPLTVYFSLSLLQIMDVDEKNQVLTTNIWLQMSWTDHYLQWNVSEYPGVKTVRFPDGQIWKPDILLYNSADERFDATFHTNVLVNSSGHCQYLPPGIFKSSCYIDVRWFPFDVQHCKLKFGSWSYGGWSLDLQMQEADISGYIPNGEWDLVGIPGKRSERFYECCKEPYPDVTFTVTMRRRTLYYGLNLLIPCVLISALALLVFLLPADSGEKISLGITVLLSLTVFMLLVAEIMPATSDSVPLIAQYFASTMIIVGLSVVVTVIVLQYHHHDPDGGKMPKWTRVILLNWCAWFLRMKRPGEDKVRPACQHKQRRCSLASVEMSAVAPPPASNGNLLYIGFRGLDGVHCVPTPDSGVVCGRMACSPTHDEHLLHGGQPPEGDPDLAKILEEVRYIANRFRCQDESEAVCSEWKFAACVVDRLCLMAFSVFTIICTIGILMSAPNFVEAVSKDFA", "experiment": "electrophysiology functional assay in Xenopus laevis oocytes", "assay_type": "cell-based"}, "PC12 cells": {"tested_on": "PC12 cells", "experiment": "neuroprotection against Abeta(1-42) in PC12 cells", "assay_type": "cell-based, rat", "text": "It has been shown that nicotine-induced complex formation between the alpha7 nicotinic acetylcholine receptor (nAChR) and the tyrosine-phosphorylated enzyme Janus kinase 2 (JAK2) results in subsequent activation of phosphatidylinositol-3-kinase (PI-3-K) and Akt. Nicotine interaction with the alpha7 nAChR inhibits Aβ (1-42) interaction with the same receptor, and Aβ (1-42)-induced apoptosis is prevented through nicotine-induced activation of JAK2. These effects can be shown by measuring markers of cytotoxicity, including the cleavage of the nuclear protein poly(ADP-ribose) polymerase (PARP), the induction of caspase 3, or cell viability.\nPC12, rat pheochromocytoma cells, were maintained in proliferative growth phase in Dulbecco's modified Eagle's medium supplemented with 10% horse serum, 5% fetal calf serum, and antibiotics (penicillin/streptomycin). Apoptosis was determined by assessing the cleavage of the DNA-repairing enzyme PARP using a Western blot assay. […] Caspase 3 enzyme activity was determined with a fluorogenic substrate for caspase-3 in crude PC12 cell extracts. […] The substrate emits a blue fluorescence when excited at a wavelength of 360 nm. When cleaved from the peptide by the caspase 3 enzyme activity in the cell lysate, free 7-amino-4-methyl Coumarin is released and can be detected by its yellow/green emission at 460 nm. […]"}, "alpha7 nAChR": {"target": "T2, alpha7 nAChR (Rattus norvegicus, UniProt Q05941)", "T2 construct": "displacement studies using ^3H-MLA in rat hippocampal tissues; from tissue; host or cells: rat hippocampus", "T2 sequence (Q05941 23-502)": "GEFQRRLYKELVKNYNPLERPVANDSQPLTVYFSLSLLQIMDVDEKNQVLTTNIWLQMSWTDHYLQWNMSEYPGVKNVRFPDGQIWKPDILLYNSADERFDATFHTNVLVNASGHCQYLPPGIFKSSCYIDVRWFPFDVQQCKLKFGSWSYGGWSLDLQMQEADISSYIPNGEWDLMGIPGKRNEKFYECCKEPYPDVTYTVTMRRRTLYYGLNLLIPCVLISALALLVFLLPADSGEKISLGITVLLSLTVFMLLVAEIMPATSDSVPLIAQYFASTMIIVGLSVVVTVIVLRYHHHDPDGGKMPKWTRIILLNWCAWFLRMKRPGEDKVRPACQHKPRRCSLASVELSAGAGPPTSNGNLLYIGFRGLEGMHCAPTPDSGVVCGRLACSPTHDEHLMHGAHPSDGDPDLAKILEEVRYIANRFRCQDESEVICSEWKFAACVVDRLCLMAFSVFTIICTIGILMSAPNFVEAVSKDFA", "experiment": "displacement studies using 3H-MLA in rat hippocampal tissues", "assay_type": "binding"}, "[2]": {"tested_on": "other nicotinic receptors, including alpha4beta2", "experiment": "binding affinity for other nicotinic receptors ([3H]-nicotine binding)"}, "microglia": {"tested_on": "microglia", "details": "mice", "text": "The proliferation of microglial cells is an early event in the activation process in animal models of neuroinflammation. Microglial activation is thought to contribute to the pathology of many CNS neuro-inflammatory and neurodegenerative disorders."}, "[3]": {"tested_on": "hippocampal progenitor cells", "details": "for proliferation of progenitor cells in the hippocampus: 129SvEv mice; for magnitude of increase in proliferation of hippocampal progenitor cells: oral gavage, vs vehicle", "source_text": "Since new neurons develop from the progenitor cells in the hippocampus, measuring the proliferation of this cell population may be used as an indicator of the full neurogenesis process. Hippocampal neurogenesis can be evaluated by measuring the incorporation of deuterium from heavy water into the DNA of progenitor cells and the rate of label incorporation reflects the rate of cellular proliferation. Fluoxetine, a known neurogenic antidepressant, was used as the positive control and as a comparator to the nicotinic ligands.\nMice were labeled for the last 10-11 days of the drug treatment period. Tissue processing and analysis: At the end of treatment and label, mice were sacrificed, the hippocampus was dissected from the brain and digested with papain and progenitor cells were isolated by Percoll fractionation. DNA was purified from the isolated progenitor cells using a DNEasy tissue kit (Qiagen, Valencia, Calif.), then processed and analyzed by GC/MS. DNA was enzymatically hydrolyzed to free deoxyribonucleosides, and the deoxyribose moiety of purine deoxyribonucleosides was converted to the pentafluorobenzyl triacetate derivative. […] Incorporation of ^2H into purine deoxyribose was quantified as the molar excess fraction M1 (EM1), i.e. the increase over natural abundance (background), determined from the fractional M1 value in unlabeled DNA standards from calf thymus.\nConcurrent analysis of DNA from bone marrow cells, which are fully turned over in 1 week provides an internal reference factor in each animal to correct for variations in body water ^2H enrichment. The fraction of newly divided progenitor cells was calculated as the ratio of EM1 in purine deoxyribose from progenitor cell DNA to the corresponding EM1 from enrichment in bone marrow DNA."}, "GP8.3 cells": {"tested_on": "GP8.3 cells", "experiment": "ionizing radiation damage to rat brain vasculature endothelial cells", "assay_type": "cell-based", "experimental": "Cells were cultured in α-MEM/Ham's F10, 10% FBS, 50 IU/mL penicillin, 50 μg/mL streptomycin, […] L-glutamine, and 250 μg/mL Geneticin and maintained in a humidified atmosphere containing 5% CO2 at 37° C. Intracellular reactive oxygen species (ROS) generation was measured in GP8.3 cells using 2′7′ dichlorodihydrofluorescein diacetate (DCFH-DA). Cells were incubated with 20 μM DCFH-DA in phosphate buffered saline (PBS) for 30 min prior to irradiation. The fluorescence intensity was measured at excitation wavelength 485 nm and emission wavelength 530 nm using a Bio-Tek FL500 microplate fluorescence reader. Western blot analysis: GP8.3 cells were collected following treatment and protein was separated by polyacrylamide gel electrophoresis (PAGE) on a 12% gel. Primary goat anti-ICAM-1 and mouse anti-β-actin were used. The secondary antibody was horse radish peroxidase (HRP)-conjugated secondary antibodies. Northern blot analysis: Total RNA was isolated using Tri-ZOL reagent. cDNA probes were labeled with α32P-dCTP by the random primer extension method. The cDNA of rat ICAM-1 was synthesized. Cell viability was determined using a modified 3-(4,5-Dimethylthiazol-2-yl)-2,5-Diphenyltetrazolium Bromide (MTT) assay. Briefly, 5,000 cells/well were plated in 24-well plates and incubated overnight. […] At the end of the follow-up period, cells were incubated with MTT in PBS for 4 h. Cell lysis detergent (20% SDS and 50% dimethylformamide, pH 4.7, in PBS) was then added and the plates incubated overnight at 37° C. A 100 μl aliquot of the soluble fraction was then transferred to 96-well microplates, and the absorbance at 570 nm measured using an Enzyme-Linked ImmunoSorbent Assay (ELISA) plate reader."}},
  "note": "pKi: −log10 of the molar value. Read-outs that look alike come from different tables or passages of the source.",
  "data": [
    {"compound": "c1cncc(C2CCC3CCN2CC3)c1", "note": "(centres unmarked) [Compound B, 2-(3-pyridinyl)-1-azabicyclo[3.2.2]nonane]", "values": [
      {"measurement": "functional agonism at alpha4beta2", "setting": "alpha4beta2", "value": "not functionally agonistic"},
      {"measurement": "Emax", "setting": "[1]", "value": "> 50", "unit": "%"},
      {"measurement": "cell survival in PC-12 cells exposed to lethal amounts of Abeta(1-42)", "setting": "PC12 cells; FIG. 10", "value": "neuroprotective"},
      {"measurement": "neuroprotection against Aβ (1-42) via JAK2/PI-3K cascade (PARP cleavage)", "setting": "PC12 cells; PC12 cells", "value": "exerts neuroprotective effects"},
      {"measurement": "pKi", "setting": "alpha7 nAChR", "value": "8.70 to 9.00"},
      {"measurement": "binding to alpha4beta2", "setting": "[2]", "value": "binds to alpha4beta2"}
    ]},
    {"compound": "CN1CCCC1c1cccnc1", "note": "(centres unmarked) [Compound C, nicotine, reference compound]", "values": [
      {"measurement": "LPS-induced neuroinflammation (microglial proliferation)", "setting": "microglia; 0.1 mg/kg p.o.", "value": "decreased LPS-induced neuroinflammation"},
      {"measurement": "affinity for alpha7 nAChR", "setting": "alpha7 nAChR; displacement of [3H]-MLA", "value": "high affinity"},
      {"measurement": "binding to alpha4beta2", "setting": "[2]", "value": "high affinity"},
      {"measurement": "proliferation of progenitor cells in the hippocampus", "setting": "[3]; repeat administration 1 mg/kg/day p.o.", "value": "increase the proliferation of progenitor cells"}
    ]},
    {"compound": "CNC1(C)C2CCC(C2)C1(C)C", "note": "(centres unmarked) [mecamylamine, reference compound]", "values": [
      {"measurement": "effect on the Compound A-induced changes (IL-6, ICAM-1, ROS)", "setting": "GP8.3 cells; antagonist with Compound A", "value": "reversed"}
    ]},
    {"compound": "CNCCC(Oc1ccc(C(F)(F)F)cc1)c1ccccc1", "note": "(centres unmarked) [fluoxetine, Fluoxetine, reference compound]", "values": [
      {"measurement": "increase in proliferation of hippocampal progenitor cells", "setting": "[3]; 10 mg/kg po, 3 weeks, positive control", "value": 35, "unit": "%"}
    ]},
    {"compound": "Cc1ccc(C(=O)N[C@@H]2C3CCN(CC3)[C@H]2Cc2cccnc2)s1", "note": "[Compound A, 5-methyl-N-[(2S,3R)-2-(pyridin-3-ylmethyl)-1-azabicyclo[2.2.2]oct-3-yl]thiophene-2-carboxamide]", "values": [
      {"measurement": "radiation-induced up-regulation of ICAM1 mRNA and protein", "setting": "GP8.3 cells; pre-incubation (10 μM per FIG. 7)", "value": "ameliorated"},
      {"measurement": "radiation-induced up-regulation of ROS", "setting": "GP8.3 cells; pre-incubation (10 μM per FIG. 8)", "value": "abolished"},
      {"measurement": "radiation-induced up-regulation of IL-6 mRNA and protein", "setting": "GP8.3 cells; pre-incubation with 10 μM", "value": "abolished"},
      {"measurement": "LPS-induced neuroinflammation (microglial proliferation)", "setting": "microglia; 1 mg/kg p.o.", "value": "decreased LPS-induced neuroinflammation"},
      {"measurement": "magnitude of increase in proliferation of hippocampal progenitor cells", "setting": "[3]; 0.1 mg/kg, 3 weeks", "value": 36, "unit": "%"},
      {"measurement": "magnitude of increase in proliferation of hippocampal progenitor cells", "setting": "[3]; 0.3 mg/kg, 3 weeks", "value": 24, "unit": "%"},
      {"measurement": "magnitude of increase in proliferation of hippocampal progenitor cells", "setting": "[3]; 1 mg/kg, 3 weeks", "value": 30, "unit": "%"},
      {"measurement": "proliferation of progenitor cells in the hippocampus", "setting": "[3]; repeat administration 0.1-1 mg/kg/day p.o.", "value": "increase the proliferation of progenitor cells"}
    ]}
  ]
}
